Experimental data: patent US4289777A, “Quinolonecarboxylic acid derivatives and pharmaceutical preparations thereof for treatment of an allergic disease of the respiratory tract” (Schering, Aktiengesellschaft, priority 1978, dated 1981)
Converted amounts (≈) assume the structure as drawn. Where a name gives a salt, the structure may show the parent alone. Read-outs that look alike come from different tables or passages of the source.

Key:
[1] = tested on: passive cutaneous anaphylaxis in rats (PCA), mediator liberation; experiment: passive cutaneous anaphylaxis in rats (PCA), inhibition of allergic reaction; format: in vivo; conditions: iv, rat PCA, i.v.
Protocol: For this purpose, rats are passively sensitized by the intracutaneous injection of various dilutions (1:8 and 1:16) of a standardized IgE-containing hyperimmune serum. After 48 hours, the compound to be tested, dissolved as the sodium salt in a physiological NaCl solution, and ovalbumin as the allergen, combined with a dye to better measure the local allergic reaction, are administered intravenously.
The measurement determines the inhibition of the allergic reaction in the presence of the test compound as compared with the allergic reaction without the inhibiting agent.

Diplococcus pneumoniae = experiment: in vitro series dilution test, antibacterial effect; format: cell-based; conditions: Streptococcus pneumoniae, read-out: Minimum Inhibitory Concentration
Text: (§1) The antibacterial effect can be measured in vitro in a series dilution test.

[2] = tested on: Staphylococcus aureus 30-107; experiment: as above; format: cell-based; conditions: 30107; Staphylococcus aureus 30-107, in vitro; read-out: Minimum Inhibitory Concentration
Text: as §1

[3] = tested on: Staphylococcus aureus 30-109; experiment: as above; format: cell-based; conditions: 30109; Staphylococcus aureus 30-109, in vitro; read-out: Minimum Inhibitory Concentration
Text: as §1

[4] = tested on: Staphylococcus aureus 30-2; experiment: as above; format: cell-based; conditions: 302; Staphylococcus aureus 30-2, in vitro; read-out: Minimum Inhibitory Concentration
Text: as §1

[5] = tested on: Staphylococcus aureus 30-3; experiment: as above; format: cell-based; conditions: 303; Staphylococcus aureus 30-3, in vitro; read-out: Minimum Inhibitory Concentration
Text: as §1

[6] = tested on: Staphylococcus aureus 30-53; experiment: as above; format: cell-based; conditions: 3053; Staphylococcus aureus 30-53, in vitro; read-out: Minimum Inhibitory Concentration
Text: as §1

[7] = tested on: Staphylococcus aureus 30-64; experiment: as above; format: cell-based; conditions: 3064; Staphylococcus aureus 30-64, in vitro; read-out: Minimum Inhibitory Concentration
Text: as §1

[8] = tested on: Staphylococcus aureus 30-8; experiment: as above; format: cell-based; conditions: 308; Staphylococcus aureus 30-8, in vitro; read-out: Minimum Inhibitory Concentration
Text: as §1

mast cells of the lungs = conditions: upon inhalation; J. Med. Chem. 15: 583 [1972]; cited from earlier work
carrageenin test = experiment: carrageenin test, antiinflammatory effect; format: in vivo
Text: The inflammation-inhibitory effect can be measured by the carrageenin test (Winter, C. A., E. A. Risley and G. W. Nuss, Proc. Soc. Exp. Biol. Med. 111: 544-547 [1962]).

[9] = tested on: Diplococcus pneumoniae and a series of strains of Staphylococcus aureus; experiment: in vitro series dilution test, antibacterial effect (summary over all bacteria); format: cell-based; conditions: in words
Text: as §1

[10] = IgE serum dilution 1:8, dissolved as the sodium salt, read-out: % Inhibition, IgE 1:8
[11] = IgE serum dilution 1:16, dissolved as the sodium salt, read-out: % Inhibition, IgE 1:16

CCn1cc(C(=O)O)c(=O)c2ccc(OCC(O)COc3ccc4c(=O)c(C(=O)O)cn(CC)c4c3)cc21 [1,3-Bis(1-ethyl-3-carboxy-1,4-dihydro-4-oxo-7-quinolyloxy)-2-propanol]
inhibition at 5 mg/kg [1, 10]: 59% | inhibition at 5 mg/kg [1, 11]: 69% | inhibition at 10 mg/kg [1, 10]: 84% | inhibition at 10 mg/kg [1, 11]: 90% | MIC (Diplococcus pneumoniae): 50 µg/mL (≈ 95.7 µM) | MIC [2]: 50 µg/mL (≈ 95.7 µM) | MIC [3]: 25 µg/mL (≈ 47.8 µM) | MIC [4]: 25 µg/mL (≈ 47.8 µM) | MIC [5]: 12.5 µg/mL (≈ 23.9 µM) | MIC [6]: 50 µg/mL (≈ 95.7 µM) | MIC [7]: 50 µg/mL (≈ 95.7 µM) | MIC [8]: 12.5 µg/mL (≈ 23.9 µM)

O=C(O)c1cc(=O)c2c(OCC(O)COc3cccc4oc(C(=O)O)cc(=O)c34)cccc2o1 [sodium salt of cromoglycic acid]
inhibition of liberation of mediators triggering bronchoconstriction, such as histamine and SRS-A (mast cells of the lungs): inhibit the liberation of mediators triggering bronchoconstriction

1,3-Bis(1-ethoxy-3-carboxy-1,4-dihydro-4-oxo-7-quinolyloxy)-2-propanol
% Inhibition (carrageenin test; i.v., 10 mg./kg.): 44% | % Inhibition (carrageenin test; p.o., 75 mg./kg.): 28%

Cn1cc(C(=O)O)c(=O)c2ccc(OCC(O)COc3ccc4c(=O)c(C(=O)O)cn(C)c4c3)cc21 [1,3-Bis(3-carboxy-1,4-dihydro-1-methyl-4-oxo-7-quinolyloxy)-2-propanol]
inhibition at 5 mg/kg [1, 10]: 62% | inhibition at 5 mg/kg [1, 11]: 69%

CCCCn1cc(C(=O)O)c(=O)c2ccc(OCC(O)COc3ccc4c(=O)c(C(=O)O)cn(CCCC)c4c3)cc21 [1,3-Bis(1-butyl-3-carboxy-1,4-dihydro-4-oxo-7-quinolyloxy)-2-propanol]
inhibition at 10 mg/kg [1, 10]: 71% | inhibition at 10 mg/kg [1, 11]: 85%

O=C(O)c1cc(=O)c2c(OCC(O)COc3cccc4oc(C(=O)O)cc(=O)c34)cccc2o1 [Cromoglycic Acid, reference compound]
inhibition at 5 mg/kg [1, 10]: 63% | inhibition at 5 mg/kg [1, 11]: 67% | inhibition at 10 mg/kg [1, 10]: 60% | inhibition at 10 mg/kg [1, 11]: 84% | antiinflammatory activity (carrageenin test; in words): only an extremely weak efficacy, or even no corresponding efficacy at all | inhibition at 10 mg/kg (carrageenin test; iv, 10 mg./kg.): 10% | inhibition at 75 mg/kg (carrageenin test; po, 75 mg./kg.): 0% | MIC (Diplococcus pneumoniae): > 100 µg/mL | MIC [2]: > 100 µg/mL | MIC [3]: > 100 µg/mL | MIC [4]: > 100 µg/mL | MIC [5]: > 100 µg/mL | MIC [6]: > 100 µg/mL | MIC [7]: > 100 µg/mL | MIC [8]: > 100 µg/mL | antibacterial activity [9]: ineffective against all bacteria investigated
